The text below walks through data of patent US11083725B2 (priority 2014, dated 2021).

Entries after “also recorded” stand apart in the source; their conditions may differ. Where two headings read alike, the source gives them in different places.

Experiment [1] concerns CA09. As to the kind of experiment: High-throughput modified TCID50 viral titer of drug-screen supernatant on MDCK cells (area under the curve). The note with it: supernatant of CA09-infected NHBE cells titrated on MDCK cells. It is filed as cell-based, influenza virus H1N1 strain A/CA/04/2009.
For experiment [2], the system named is CA09. Put plainly: microbe, parasite or virus in culture. The class given is cell-based, influenza virus H1N1 strain A/CA/04/2009. The settings on record: for Viral Titer Therapeutic: follow up validation titer, therapeutic treatment; for log reduction at 10 pM / log reduction at 0.0001 µM / log reduction at 0.001 µM / log reduction at 0.01 µM / log reduction at 0.1 µM / log reduction at 1 µM / log reduction at 10 µM / log reduction at 100 µM: NHBE, read-out: TCID50 (per mL).

For a further experiment, the system named is NHBE cells. As to the kind of experiment: cells. The class given is cell-based, human. The note with it: for IC50: Homo sapiens, NHBE.
Experiment [3] relates to CA09. As to the kind of experiment: In vivo drug tests in CA09-infected mice: weight loss, survival, lung viral titer. Further details: species or system C57/B6 mice. The settings on record: mice infected intranasally with CA09; for weight loss: daily drug for 7 days from 2 days before infection (NVP-BEZ235 25 mg/kg oral gavage; clotrimazole 120 mg/kg ip; α-mangostin 8 mg/kg ip); for survival: daily drug for 7 days from 2 days before infection, monitored 15 days.

Experiment [4] concerns BMDCs. Put plainly: Isotopically labeled substrate utilization in bone marrow-derived dendritic cells. It is filed as cell-based, mouse.
Experiment [5] has as its system BMDCs. The class given is cell-based, mouse.
Where [6] appears, read: read-out: IC50, Prophylactic Treatment, Viral Infected.

As to `O=C(Nc1cccc(Nc2ncc(Br)c(NCCc3cnc[nH]3)n2)c1)N1CCCC1` [BX-912], in the experiment on CA09 [1], the “viral titers in the high-throughput screening” value is listed as “reduced”. In addition, in the experiment with CA09 [2], the “Viral Titer Therapeutic” value is listed as “Reduced”.
For `Clc1ccccc1C(c1ccccc1)(c1ccccc1)n1ccnc1` [Clotrimazole], in the experiment with NHBE cells, the “Cell Death Prophylactic” value was “C > V” and the “NHBE cell survival / cell death after infection” value (shortened to “NHBE cell survival / cell death”) was “differentially affected; also recorded: differential effects”. In the experiment on CA09 [2], the “Viral Titer Prophylactic” value is “Reduced”, the “viral titers in NHBE cells (validated drug hits)” value (“viral titers in NHBE cells” below) is listed as “consistently reduced; also recorded: consistent reduction”, the log reduction at 10 pM is 0.71 and the log reduction at 0.0001 µM came to 0.85. Further, in the experiment on CA09 [2], the log reduction at 0.001 µM amounted to 0.84, the log reduction at 0.01 µM came out at 0.7, the log reduction at 0.1 µM came out at 0.48 and the log reduction at 1 µM is 0.95. In the experiment with CA09 [2], the log reduction at 10 µM was 0.9 and the log reduction at 100 µM was determined as 1.07. Also, in the experiment on CA09 [3], the weight loss result is given as “little effect” and the survival result is “little effect”.
Usually IC50 stands for the concentration needed to halve the response being measured. In the case of `C=C(C)[C@@H]1CC[C@]2(C(=O)O)CC[C@]3(C)[C@H](CC[C@@H]4[C@@]5(C)CC[C@H](O)C(C)(C)[C@@H]5CC[C@]43C)[C@@H]12` [Betulinic Acid], in the experiment with NHBE cells (setting [6]), the IC50 was found to be 2 µM. For the same compound, in the experiment on CA09 [2], the log reduction at 10 pM is 0.37, the log reduction at 0.0001 µM stood at 0.63, the log reduction at 0.001 µM stood at 0.51 and the log reduction at 0.01 µM came out at 0.55. Moreover, in the experiment on CA09 [2], the log reduction at 0.1 µM was found to be 0.31, the log reduction at 1 µM amounted to 0.96, the log reduction at 10 µM was determined as 0.61 and the log reduction at 100 µM worked out at 0.59.
For lipopolysaccharide [LPS], in the experiment with BMDCs [4], the “glycolysis (radiolabeled metabolic substrate assay)” value was “slight increase” and the “other substrate use measures (radiolabeled metabolic substrate assays)” value is “little effect”.
On to “polyinosinic polycytidylic acid [PolylC]”, for which the “all metabolites measured in flux assays” value in the experiment with BMDCs [5] was “extreme drops”.
With `COc1c(O)cc2oc3cc(O)c(CC=C(C)C)c(O)c3c(=O)c2c1CC=C(C)C` [α-Mangostin], in the experiment with NHBE cells, the “Cell Death Prophylactic” value is listed as “C > V”, the “Cell Death Therapeutic” value is reported as “C > V” and the “NHBE cell survival / cell death” value is recorded as “differential effects”. Besides, in the experiment with NHBE cells (listed as α-mangostin), the “NHBE cell survival / cell death” value was “differentially affected”. For the same compound, in the experiment on CA09 [2], the “viral titers in NHBE cells” value was “consistent reduction”. Also, the log reduction at 10 pM in the experiment on CA09 [2] (Prophylactic Drug Treatment, Drug Dose 10 pM, […]) stood at 0.74. Moreover, in the experiment with CA09 [2] (Prophylactic Drug Treatment, Drug Dose 100 pM, […]), the log reduction at 0.0001 µM was 0.69. In addition, the log reduction at 0.001 µM in the experiment on CA09 [2] (Prophylactic Drug Treatment, Drug Dose 1 nM, […]) was 0.54. Further, in the experiment with CA09 [2] (Prophylactic Drug Treatment, Drug Dose 10 nM, […]), the log reduction at 0.01 µM worked out at 0.65. Besides, the log reduction at 0.1 µM with CA09 [2] (Prophylactic Drug Treatment, Drug Dose 100 nM, […]) was determined as 0.84. In addition, the log reduction at 1 µM in the experiment with CA09 [2] (Prophylactic Drug Treatment, Drug Dose 1 μM, […]) is 0.71. Moreover, in the experiment on CA09 [2] (Prophylactic Drug Treatment, Drug Dose 10 μM, […]), the log reduction at 10 µM came to 1.2. In the experiment with CA09 [2] (Prophylactic Drug Treatment, Drug Dose 100 μM, […]), the log reduction at 100 µM turned out to be 0.85. In the experiment with CA09 [2] ([…], prophylactic treatment), the “Viral Titer Prophylactic” value is recorded as “Reduced”. In addition, in the experiment with CA09 [2] (listed as α-mangostin), the “viral titers in NHBE cells” value is listed as “consistently reduced”. In addition, in the experiment with CA09 [3], the weight loss entry is “little effect” and the survival entry is “little effect”.
In the case of `O=CC[C@@H](O)[C@H](O)[C@H](O)CO` [2-deoxyglucose], the “NHBE cell survival / cell death” value with NHBE cells was “preferentially killed infected cells”. For the same compound, in the experiment on CA09 [1], the “viral titers in the high-throughput screening” value was “reduced”. In the experiment with CA09 [2] (FIG. 12B, NHBE supernatant titered on MDCK cells), the “viral titer following therapeutic treatment” value is given as “efficient at reducing viral load”. Moreover, in the experiment on CA09 [2], the log reduction at 10 pM amounted to 0.94, the log reduction at 0.0001 µM turned out to be 0.35, the log reduction at 0.001 µM is 0.48 and the log reduction at 0.01 µM stood at 0.43. Besides, in the experiment with CA09 [2], the log reduction at 0.1 µM turned out to be 0.28, the log reduction at 1 µM is 0.87, the log reduction at 10 µM came to 1.01 and the log reduction at 100 µM stood at 0.85. Besides, the “Viral Titer Therapeutic” value in the experiment with CA09 [2] is on record as “Reduced”.
For `CCc1ccc(CCOc2ccc(CC3SC(=O)NC3=O)cc2)nc1` (stereo not shown) [Pioglitazone], the “Cell Death Prophylactic” value in the experiment on NHBE cells is “C > V”. In addition, in the experiment on CA09 [2], the log reduction at 10 pM was found to be 0.22, the log reduction at 0.0001 µM is 0.8, the log reduction at 0.001 µM worked out at 0.66 and the log reduction at 0.01 µM was 0.47. Further, in the experiment with CA09 [2], the log reduction at 0.1 µM is -0.1, the log reduction at 1 µM came to 0.49, the log reduction at 10 µM worked out at 0.73 and the log reduction at 100 µM was determined as 0.23.
`CCc1c(-c2ccccc2)c(-c2ccccc2)nn1-c1ccccc1-c1cccc(OCC(=O)O)c1` [FABP4 Inhibitor]: the “Cell Death Prophylactic” value in the experiment with NHBE cells is “V > C”. Besides, in the experiment on NHBE cells (72 h, read-out: IC50, Therapeutic Treatment, Control), the IC50 came to 4 µM. Besides, in the experiment with CA09 [2], the “Viral Titer Prophylactic” value was “Reduced”.
With `NC(=O)N1CCC(CC(=O)N2CCC([C@H]3c4ncc(Br)cc4CCc4cc(Cl)cc(Br)c43)CC2)CC1` [Lonafarnib], in the experiment on NHBE cells, the “Cell Death Prophylactic” value was “C > V”. For the same compound, the IC50 in the experiment with NHBE cells (72 h, read-out: IC50, Prophylactic Treatment, Control) stood at 1.9 µM. For the same compound, in the experiment with NHBE cells (setting [6]), the IC50 amounted to 1.3 µM. Also, in the experiment on CA09 [2], the log reduction at 10 pM stood at 0.04, the log reduction at 0.0001 µM was determined as 0.15, the log reduction at 0.001 µM turned out to be 0.56 and the log reduction at 0.01 µM is -0.06. Further, in the experiment with CA09 [2], the log reduction at 0.1 µM worked out at 0.3, the log reduction at 1 µM is 1.16, the log reduction at 10 µM was determined as 0.28 and the log reduction at 100 µM amounted to 1.25.
Consider `O=C1Nc2ccc3ncsc3c2/C1=C/c1cnc[nH]1` [Imidazolo-oxindole C 16], for which the “Cell Death Therapeutic” value in the experiment with NHBE cells was “V > C”. For the same compound, the “viral titers in the high-throughput screening” value in the experiment on CA09 [1] is listed as “reduced”.
